# Experimental data from paper PMC2426711 (AIDS Research and Therapy, 2008).
# Read-outs that look alike come from different tables or passages of the source.
# Key:
# [1] = system: R5-tropic HIV-1Ba-L; assay: Inhibition of infection of dendritic cells by R5-HIV-1Ba-L (p24 ELISA); format: cell-based; settings: DC, mean ± 1 SD
# Protocol: (§1) Primary X4-HIV-1NDK was grown in peripheral blood lymphocytes (PBL) of healthy donors stimulated with PHA and rhIL-2. R5-HIV-1Ba-L was amplified in monocyte-derived macrophages of healthy donors.
# (§2) Cells were washed 2 times after 6 days of differentiation and seeded into 96-well culture plates (5 × 10^5 cells/well). HIV-1 (1 ng p24 antigen/ml) and increasing concentrations of molecules were added on cells and incubated for 3 hours at 37°C in a 5% CO2 atmosphere. Each sample was performed in triplicate. After 4 washes to remove exceeding virus, cells were cultured for 3 days. […] In this last case, supernatants were harvested and viruses produced were lysed by incubation for 45 minutes at 37°C with 1% Triton X-100.
# [2] = system: R5-tropic HIV-1Ba-L; assay: Inhibition of infection of macrophages by R5-HIV-1Ba-L (p24 ELISA); format: cell-based; settings: MΦ, mean ± 1 SD
# Protocol: as §1, §2
# [3] = system: R5-tropic HIV-1
# Protocol: (§3) To assess the transmission of HIV-1 from MDDC to autologous T-cells, MDDC were incubated into 96-well culture plates (10^5 cells/well) and infected with HIV-1 (1 ng p24) in the presence of increasing concentrations of molecules for 3 hours at 37°C in a 5% CO2 atmosphere. Cells were washed four times and autologous stimulated T cells were added onto infected MDDC at a MDDC/T-cell ratio of 1/5 for 6 days. Each sample was performed in triplicate. Culture supernatants were harvested every 3 days and fresh medium was added. Supernatants were inactivated with 1% Triton X-100. The viral production by T lymphocytes was evaluated the sixth day of the co-culture by measurement of HIV-1 p24 antigen in supernatants using capture ELISA.
# (§4) Culture supernatants were harvested after 7 of culture for measurement of HIV p24 antigen.
# [4] = system: X4-tropic HIV-1
# Protocol: as §3, §4
# [5] = system: X4-tropic HIV-1 particles; settings: 20 μM
# Protocol: (§5) As expected, no viral production was detected in control wells containing triton X100-treated HIV-1 and activated PBL (negative control).
# (§6) HIV-1 was adsorbed on poly-L-lysin pre-coated wells (Greiner Bio-One) at 4°C overnight and further incubated with C14 for 1 h. In positive and negative control wells, 1% Triton X-100 and medium were added, respectively. […] After 6 days, viral production was assessed by p24 Ag capture ELISA.
# [6] = system: HIV-1
# [7] = system: X4-tropic HIV-1NDK; assay: Inhibition of infection of dendritic cells by X4-HIV-1NDK (p24 ELISA); format: cell-based; settings: DC, mean ± 1 SD
# Protocol: as §1, §2
# [8] = system: R5-tropic HIV-1Ba-L particles
# Protocol: as §5, §6
# [9] = system: X4-tropic HIV-1NDK; assay: Inhibition of infection of macrophages by X4-HIV-1NDK (p24 ELISA); format: cell-based; settings: MΦ, mean ± 1 SD
# Protocol: as §1, §2
# [10] = system: CD4, CXCR4 and CCR5; settings: primary cells treated with C14
# Protocol: Cell surface antigens were analyzed by FACSCalibur (Becton Dickinson, NJ, USA) using monoclonal antibodies (mAbs) conjugated with either fluorescein isothiocyanate (FITC) or phyco-erithryn (PE). Following incubation with different mAbs for 30 min at 4°C, cells were washed with PBS containing azide (0.01%), BSA (0.2%) and fixed using 1% formaldehyde PBS buffer.
# [11] = system: X4-tropic HIV-1NDK; assay: Inhibition of infection of T cells by X4-HIV-1NDK (p24 ELISA); format: cell-based; settings: mean ± 1 SD
# Protocol: as §1, §2
# [12] = system: R5-tropic HIV-1Ba-L; settings: 1 μM, 3 hours
# Protocol: Monocytes or PBL (10E5 cells) were adsorbed on a microscopy-adapted slide for 6 days. MDDC, MDM or PBL were infected in the presence of C14 diluted at 10 μM for 3 hours. Cells were then washed and incubated with or without polyclonal antibodies anti-gp160 (50 μg/ml) at 4°C for 30 minutes. Cells were washed with PBS 0.01% azide 0.5% BSA, and were labelled with polyclonal mouse anti-human IgG-FITC (Jackson ImmunoResearch Laboratories, West Grove, PA, USA) and then fixed with 1% paraformaldehyde. The coverslides were mounted in Mowiol (Sigma-Aldrich). The observations were made by sequential acquisition with a Zeiss LSM510 System, mounted on an Axiovert 100 M optical microscope (Carl Zeiss AG, Oberkochen, Germany), using a planapochromat ×63, 1.4 numerical aperture oil immersion objective. Optical sections were acquired, each one with an image resolution of 512 × 512 pixels.
# Cells were incubated with R5-tropic HIV-1Ba-L in the presence of 1 μM of C14 for 3 hours. […]
# Monocyte-derived macrophages, monocyte-derived dendritic cells and T cells were incubated with R5 viruses in the presence of increasing concentrations of C14 for 3 hours at 37°C. […] Cells were then analysed by confocal microscopy. […] 30 cells were at least analyzed for each donor.
# [13] = system: HIV-1 DNA (R5-HIV-1Ba-L or X4-HIV-1NDK); assay: HIV-1 DNA content of primary cells by real time PCR; settings: all primary cells, whatever the viral strain; increasing doses
# Protocol: Genomic DNA was isolated from HIV-infected macrophages by using extraction protocol on a silica column system according to the manufacturer's instructions (Qiagen DNA minikit, AG, Basel, Switzerland). […] The LC-PCR master mix contained 1 × Fast-Start Taq DNA polymerase reaction buffer (Roche Applied Science), 3 mM MgCl2, 0.3 μM of each primer and probe. Cycling conditions were as follows: initial denaturation/FastStart Taq DNA polymerase activation at 95°C/10 minutes, 45 cycles of denaturation at 95°C/10 seconds, annealing and extension at 60°C/30 seconds with a ramp of 5°C/seconds. The first PCR cycle allowing fluorescence detection permitted to quantify HIV-1 DNA by reference to a standard curve (dilutions of 8E5 cell DNA). All reactions were performed in triplicate and tested in the same assay. […] The normalized value of cell-associated HIV-1 DNA loads corresponding to the ratio [(HIV-1 copy number/albumin copy number) × 2 × 10^6], was finally expressed as the number of HIV-1 DNA copies per 10^6 cells.
# Monocyte-derived macrophages (A), monocyte-derived dendritic cells (B) and T cells (C) were incubated with R5 or X4 viruses in the presence of increasing concentrations of C14 or an unique dose of T 20 (5 μM) for 3 hours at 37°C. […] DNA was extracted and the viral DNA was quantified by real time PCR. […]
# [14] = system: R5-tropic HIV-1Ba-L; assay: Inhibition of infection of T cells by R5-HIV-1Ba-L (p24 ELISA); format: cell-based; settings: mean ± 1 SD
# Protocol: as §1, §2
# [15] = system: HIV-1; set-up: method as in PMID 15790304; settings: cited from earlier work
# [16] = system: vaginal mucosa; set-up: method as in PMID 11162774; settings: vaginal toxicity, New Zealand White rabbit; cited from earlier work
molecule,measurement,setting,value
zinc tetra-ascorbo-camphorate [C14],IC50,[1],1300 ± 100 nM
same,IC50,[2],1300 ± 1000 nM
same,inhibition of HIV-1 transfer from DC to T cells,[3]; 1 μM,about 95%
same,inhibition of HIV-1 transfer from DC to autologous T cells,[3]; low concentrations,more than 90%
same,inhibition of HIV-1 transfer from DC to T cells,[4]; 1 μM,about 95%
same,inhibition of HIV-1 transfer from DC to autologous T cells,[4]; low concentrations,more than 90%
same,disruption of HIV-1 particles,[5],58 ± 2%
same,IC50,[6]; different primary cells,1000 nM
same,EC50,[6]; infection of all the primary cells tested,1000 nM
same,IC50,[7],1800 ± 100 nM
same,"HIV-1 production by activated PBL, virus treated versus untreated with C14",[8],similar
same,IC50,[9],20 nM
same,"cell surface expressions of CD4, CXCR4 and CCR5",[10],not altered
same,IC50,[11],700 ± 100 nM
same,inhibition of entry of viruses,[12]; T cells,inhibited the entry of viruses only into T cells
same,inhibition of entry of viruses,[12]; macrophages and DCs,unlike in macrophages and DCs
same,reduction of the HIV-1 DNA content,[13],2–3 log
same,IC50,[14],800 nM
C=C(C)[C@@H]1CC[C@]2(C(=O)O)CC[C@]3(C)[C@H](CC[C@@H]4[C@@]5(C)CC[C@H](OC(=O)CC(C)(C)C(=O)O)C(C)(C)[C@@H]5CC[C@]43C)[C@@H]12 [PA-457],"inhibition of HIV-1 replication, active concentration",[15],nanomolar concentrations
C=C(C)[C@@H]1CC[C@]2(C(=O)NCCCCCCCC(=O)N[C@@H](CC(C)C)[C@H](O)CC(=O)O)CC[C@]3(C)[C@H](CC[C@@H]4[C@@]5(C)CC[C@H](O)C(C)(C)[C@@H]5CC[C@]43C)[C@@H]12 [IC9564],"inhibition of HIV-1 replication, active concentration",[15],nanomolar concentrations
CCCCCCCCCc1ccc(OCCOCCOCCOCCOCCOCCOCCOCCOCCO)cc1 [nonoxynol-9],score of histological changes,[16],about 8 ± 3
